{"source": "paper PMC10111413", "about": "(ACS Infectious Diseases, 2023)", "type_in_all_cases": "cell-based", "key": {"A. baumannii BV94": {"system": "A. baumannii BV94", "details": "colistin-resistant clinical isolate; CLSI, cation-adjusted MHB, 18 h at 37 °C, three technical replicates", "description": "(§1) VIII. Antimicrobial testing\n(§2) Table S2. Minimum inhibitory concentrations (MICs) determined against panel of previously characterized colistin-resistant A. baumannii clinical isolates5\n(§3) Strain Relacidine A (3a) Relacidine B (4a) Relacidamide (5) Colistin […]\n(§4) aMIC values given in µg/ml.\n(§5) All minimum inhibitory concentrations were determined according to Clinical and Standards Laboratory Institute (CLSI) guidelines. Blood agar plates were inoculated from glycerol stocks of the different A. baumannii strains used and then incubated for 16 h at 37 °C . Individually grown colonies were subsequently used to inoculate 5 mL aliquots of TSB that were then incubated at 37 °C. In parallel, the lipopeptide antibiotics DMSO stocks to be assessed were serially diluted with cation-adjusted MHB in polypropylene 96-well plates (50 µL in each well). Colistin sulfate stocks were dissolved in water before being diluted with cation-adjusted MHB. The A. baumannii inoculated TSB aliquots were incubated until an OD600 of around 0.5 was reached. The bacterial suspensions were then diluted with cation-adjusted MHB (2 x 10^5 CFU mL-1) and added to the microplates containing the test compounds (50 µL to each well). The well-plates were sealed with an adhesive membrane and after 18 h of incubation at 37 °C visually inspected for bacterial growth. MIC values reported are based on three technical replicates and defined as the lowest concentration of the compound that prevented visible"}, "A. baumannii NCTC 13420": {"system": "A. baumannii NCTC 13420", "details": "CLSI, cation-adjusted MHB, 18 h at 37 °C, three technical replicates", "description": "as §1, §2, §3, §4, §5"}, "A. baumannii HUMC1": {"system": "A. baumannii HUMC1", "details": "CLSI, cation-adjusted MHB, 18 h at 37 °C, three technical replicates", "description": "as §1, §2, §3, §4, §5"}, "A. baumannii BV173": {"system": "A. baumannii BV173", "details": "CLSI, cation-adjusted MHB, 18 h at 37 °C, three technical replicates", "description": "as §1, §2, §3, §4, §5"}, "A. baumannii BV95": {"system": "A. baumannii BV95", "details": "CLSI, cation-adjusted MHB, 18 h at 37 °C, three technical replicates", "description": "as §1, §2, §3, §4, §5"}, "A. baumannii BV172": {"system": "A. baumannii BV172", "details": "CLSI, cation-adjusted MHB, 18 h at 37 °C, three technical replicates", "description": "as §1, §2, §3, §4, §5"}, "A. baumannii NCTC 13304": {"system": "A. baumannii NCTC 13304", "details": "CLSI, cation-adjusted MHB, 18 h at 37 °C, three technical replicates", "description": "as §1, §2, §3, §4, §5"}, "A. baumannii ATCC 17978": {"system": "A. baumannii ATCC 17978", "details": "CLSI, cation-adjusted MHB, 18 h at 37 °C, three technical replicates", "description": "as §1, §2, §3, §4, §5"}, "A. baumannii LAC-4": {"system": "A. baumannii LAC-4", "details": "CLSI, cation-adjusted MHB, 18 h at 37 °C, three technical replicates", "description": "as §1, §2, §3, §4, §5"}, "sheep red blood cells": {"system": "sheep red blood cells", "experiment": "Hemolytic assay", "details": "128 μg/mL, 1 h at 37 °C, sheep red blood cells in PBS with 0.002% Tween20, read-out 415 nm, relative to 0.1% Triton X-100, triplicate", "description": "Figure S2. Hemolytic activity of compounds 3a-5 at 128 µg/mL and 1 h incubation against sheep red […]\nunder the same conditions.\nExperiments were performed in triplicate and Triton X-100 used as a positive control. Red blood cells from defibrinated sheep blood obtained from Thermo Fisher were centrifuged (400 g for 15 min at 4°C) and washed with Phosphate-Buffered Saline (PBS) containing 0.002% Tween20 (buffer) five times. Then, the red blood cells were normalized to obtain a positive control read-out between 2.5 and 3.0 at 415 nm to stay within the linear range with the maximum sensitivity. A serial dilution of the compounds (128 – 1 µg/mL, 75 µL) was prepared in a 96-well polypropylene plate. The outer border of the plate was filled with 75 µL buffer. Each plate contained a positive control (0.1% Triton-X final concentration, 75 µL) and a negative control (buffer, 75 µL) in triplicate. The normalized blood cells (75 µL) were added and the plates were incubated at 37 °C for 1 h while shaking at 500 rpm. A flat - bottom polystyrene plate with 100 µL buffer in each well was prepared. […] The values obtained from a read-out at 415 nm were corrected for background (negative control) and transformed to a percentage relative to the positive […]"}}, "data": [{"substance": "colistin [reference compound]", "values": [{"measurement": "MIC A. baumannii BV94", "setting": "A. baumannii BV94", "value": "> 64", "unit": "µg/mL"}, {"measurement": "MIC A. baumannii NCTC 13420", "setting": "A. baumannii NCTC 13420", "value": 0.5, "unit": "µg/mL"}, {"measurement": "MIC A. baumannii HUMC1", "setting": "A. baumannii HUMC1", "value": 1, "unit": "µg/mL"}, {"measurement": "MIC A. baumannii BV173", "setting": "A. baumannii BV173", "value": 16, "unit": "µg/mL"}, {"measurement": "MIC A. baumannii BV95", "setting": "A. baumannii BV95", "value": 32, "unit": "µg/mL"}, {"measurement": "MIC A. baumannii BV172", "setting": "A. baumannii BV172", "value": "> 64", "unit": "µg/mL"}, {"measurement": "MIC A. baumannii NCTC 13304", "setting": "A. baumannii NCTC 13304", "value": 1, "unit": "µg/mL"}, {"measurement": "MIC A. baumannii ATCC 17978", "setting": "A. baumannii ATCC 17978", "value": 1, "unit": "µg/mL"}, {"measurement": "MIC A. baumannii LAC-4", "setting": "A. baumannii LAC-4", "value": 0.5, "unit": "µg/mL"}, {"measurement": "hemolysis", "setting": "sheep red blood cells", "value": "< 0.1", "unit": "%"}]}]}
